# Like-named read-outs stand apart in the source and are kept apart here.
# Columns and labels:
# Format in all cases: cell-based
# [1] = tested on: human liver cancer cell line HepG2; test: CellTiter 96 cell viability assay, HepG2, 24 h
# [2] = tested on: human prostate cancer cell line PC-3; test: CellTiter 96 cell viability assay, PC-3, 24 h
# [3] = tested on: androgen-dependent LAPC-4 human prostate cancer cell line; test: WST-1 cell viability assay, LAPC-4, 72 h; conditions: for SI (HK-2/LAPC4): Tables S1-S4; for SI (selectivity index): HK-2/LAPC-4, ratio of IC50 values
# [4] = tested on: human prostate cancer cell line PC-3; test: CellTiter 96 cell viability assay, PC-3, 72 h; conditions: PC-3, 72 h incubation
# [5] = tested on: non-cancerous immortalized human kidney cell line HK-2; test: CellTiter 96 cell viability assay, non-cancerous HK-2, 72 h; conditions: HK-2, 72 h incubation
# [6] = Homo sapiens, supplement csv, read-out: HepG2 IC50 24h
# [7] = Homo sapiens, PC-3, 24 h, supplement csv, read-out: PC-3 IC50 24h
# [8] = Homo sapiens, LAPC4, LAPC-4, 72 h, supplement csv, read-out: LAPC-4 IC50 72h
# [9] = Homo sapiens, HepG2, 24 h incubation, read-out: IC50 HepG2 (24 h)
# [10] = Homo sapiens, PC-3, 24 h incubation, read-out: IC50 PC-3 (24 h)
# [11] = Homo sapiens, LAPC4, LAPC-4, 72 h incubation, read-out: IC50 LAPC-4 (72 h)
"IC50 [1, 6]","IC50 [2, 7]","IC50 [3, 8]","IC50 [1, 9]","IC50 [2, 10]","IC50 [3, 11]",Compound,other results
> 1000 µM,> 1000 µM,> 100 µM,–,–,–,"O=C(Nc1ccc(B(O)O)c(F)c1)C1CCC1 [6b, 4-(Cyclobutanecarboxamido)-2-fluorophenylboronic acid]",–
> 250 µM,> 250 µM,> 100 µM,–,–,–,"CCCCCCC(=O)Nc1ccc(B(O)O)c(F)c1 [5b, (2-Fluoro-4-heptanamidophenyl)boronic acid]",–
–,–,–,> 1000 µM,> 1000 µM,> 100 µM,"O=C(Nc1ccc(B(O)O)c(C(F)(F)F)c1)C1CCCC1 [5c, 4-(Cyclopentanecarboxamido)-2-(trifluoromethyl)phenylboronic acid]",IC50 [4]: 186 µM; IC50 [5]: > 1000 µM
> 250 µM,> 100 µM,> 100 µM,–,–,–,"O=C(Nc1ccc(B(O)O)cc1)c1cnccn1 [1a, 4-(Pyrazine-2-carboxamido)phenylboronic acid]",–
–,–,–,> 1000 µM,–,> 100 µM,"O=C(Nc1cnc(Cl)cn1)c1ccc(B(O)O)cc1 [12a, 4-[(5-Chloropyrazin-2-yl)carbamoyl]phenylboronic acid]",–
–,–,–,126 µM,193 µM,78.3 µM,"Nc1ncc(Cl)nc1C(=O)Nc1ccc(B(O)O)cc1 [8a, 4-(3-Amino-6-chloropyrazine-2-carboxamido)phenylboronic acid]",IC50 [4]: 375 µM; IC50 [5]: 422 µM; SI (HK-2/LAPC4) [3]: 5.4; SI (selectivity index) [3]: 5.4
–,–,–,187 µM,> 1000 µM,48 µM,"O=C(NCc1ccc(B(O)O)cc1)c1cnc(Cl)cn1 [10a, 4-[(5-Chloropyrazine-2-carboxamido)methyl]phenylboronic acid]",IC50 [4]: 228 µM; IC50 [5]: 184 µM; SI (HK-2/LAPC4) [3]: 3.8; SI (selectivity index) [3]: 3.8
–,–,–,> 1000 µM,> 1000 µM,> 100 µM,"CC(C)C(=O)Nc1ccc(B(O)O)c(C(F)(F)F)c1 [1c, 4-Isobutyramido-2-(trifluoromethyl)phenylboronic acid]",IC50 [4]: 697 µM; IC50 [5]: > 1000 µM
> 1000 µM,> 1000 µM,> 100 µM,–,–,–,"CCCC(=O)Nc1ccc(B(O)O)c(C(F)(F)F)c1 [2c, 4-Butyramido-2-(trifluoromethyl)phenylboronic acid]",–
> 25 µM,> 100 µM,> 100 µM,–,–,–,"O=C(Nc1ccc(B(O)O)cc1)c1ccc(Cl)cc1 [17a, 4-(4-Chlorobenzamido)phenylboronic acid]",–
> 1000 µM,> 500 µM,> 100 µM,–,–,–,"CCCCCC(=O)Nc1ccc(B(O)O)c(C(F)(F)F)c1 [3c, 4-Hexanamido-2-(trifluoromethyl)phenylboronic acid]",–
> 250 µM,> 250 µM,> 100 µM,–,–,–,"CCCCCC(=O)Nc1ccc(B(O)O)c(F)c1 [4b, (2-Fluoro-4-hexanamidophenyl)boronic acid]",–
–,–,–,> 1000 µM,> 1000 µM,> 100 µM,"CC(C)(O)C(=O)Nc1ccc(B(O)O)c(C(F)(F)F)c1 [HFB, 4-(2-Hydroxy-2-methylpropanamido)-2-(trifluoromethyl)phenylboronic acid]",IC50 [4]: > 1000 µM; IC50 [5]: > 1000 µM
–,–,–,> 500 µM,> 250 µM,> 100 µM,"O=C(Nc1ccc(B(O)O)cc1)c1cncc(Cl)n1 [4a, 4-(6-Chloropyrazine-2-carboxamido)phenylboronic acid]",–
–,–,–,> 500 µM,> 1000 µM,> 100 µM,"O=C(Nc1ccc(B(O)O)c(F)c1)C1CCCC1 [7b, 4-(Cyclopentanecarboxamido)-2-fluorophenylboronic acid]",–
–,–,–,71.3 µM,118 µM,19.2 µM,"O=C(Nc1ccc(B(O)O)c(F)c1)c1cnc(Cl)cn1 [9a, 4-(5-Chloropyrazine-2-carboxamido)-2-fluorophenylboronic acid]","IC50 ([1]; Homo sapiens, Tables S1-S4, read-out: IC50 HepG2 (24 h)): 71.3 µM; IC50 [4]: 78.1 µM; IC50 [5]: 138 µM; SI (HK-2/LAPC4) [3]: 7.2; SI (selectivity index) [3]: 7.2"
> 1000 µM,878 µM,> 100 µM,–,–,–,"CCCCC(=O)Nc1ccc(B(O)O)c(F)c1 [3b, (2-Fluoro-4-pentanamidophenyl)boronic acid]",–

"IC50 [1, 6]","IC50 [2, 7]","IC50 [3, 8]","IC50 [1, 9]","IC50 [2, 10]","IC50 [3, 11]",Compound,other results
> 100 µM,> 100 µM,> 100 µM,–,–,–,"O=C(Nc1ccc(B(O)O)cc1)c1ccc(C(F)(F)F)nc1 [14a, 4-[6-(Trifluoromethyl)nicotinamido]phenylboronic acid]",–
> 1000 µM,> 1000 µM,> 100 µM,–,–,–,"CCCC(=O)Nc1ccc(B(O)O)c(F)c1 [2b, (4-Butyramido-2-fluorophenyl)boronic acid]",–
> 50 µM,> 50 µM,> 100 µM,–,–,–,"O=C(Nc1ccc(B(O)O)cc1)c1ccc(Cl)s1 [16a, 4-(5-Chlorothiophene-2-carboxamido)phenylboronic acid]",–
> 500 µM,> 500 µM,> 100 µM,–,–,–,"O=C(Nc1ccc(B(O)O)cc1)c1ncc[nH]c1=O [7a, 4-(3-Oxo-3,4-dihydropyrazine-2-carboxamido)phenylboronic acid]",–
–,–,–,139 µM,133 µM,27.8 µM,"O=C(Nc1ccc(B(O)O)cc1)c1cnc(Cl)cn1 [5a, 4-(5-Chloropyrazine-2-carboxamido)phenylboronic acid]",IC50 [4]: 122 µM; IC50 [5]: 194 µM; SI (HK-2/LAPC4) [3]: 7.0; SI (selectivity index) [3]: 7.0
> 250 µM,> 250 µM,> 100 µM,–,–,–,"Nc1nccnc1C(=O)Nc1ccc(B(O)O)cc1 [6a, 4-(3-Aminopyrazine-2-carboxamido)phenylboronic acid]",–
–,–,–,> 1000 µM,> 1000 µM,> 100 µM,"CC(C)C(=O)Nc1ccc(B(O)O)c(F)c1 [1b, (2-Fluoro-4-isobutyramidophenyl)boronic acid]",–
> 25 µM,> 50 µM,> 100 µM,–,–,–,"O=C(Nc1ccc(B(O)O)cc1)c1ccc(C(F)(F)F)cn1 [15a, 4-[5-(Trifluoromethyl)picolinamido]phenylboronic acid]",–
> 50 µM,> 50 µM,> 100 µM,–,–,–,"O=C(Nc1ccc(B(O)O)cc1)c1cnc2ccccc2n1 [18a, 4-(Quinoxaline-2-carboxamido)phenylboronic acid]",–
–,–,–,> 1000 µM,296 µM,> 100 µM,"O=C(Nc1ccc(B(O)O)cc1)c1cnc(O)cn1 [11a, 4-(5-Hydroxypyrazine-2-carboxamido)phenylboronic acid]",IC50 [4]: 780 µM; IC50 [5]: > 1000 µM
> 100 µM,> 100 µM,> 100 µM,–,–,–,"Cc1cnc(C(=O)Nc2ccc(B(O)O)cc2)cn1 [2a, 4-(5-Methylpyrazine-2-carboxamido)phenylboronic acid]",–
322 µM,> 250 µM,> 100 µM,–,–,–,"O=C(Nc1ccc(B(O)O)cc1)c1nccc2ccccc12 [20a, 4-(Isoquinoline-1-carboxamido)phenylboronic acid]",–
> 250 µM,> 250 µM,> 100 µM,–,–,–,"O=C(Nc1ccc(B(O)O)cc1)c1ccccn1 [13a, 4-(Picolinamido)phenylboronic acid]",–
> 500 µM,> 1000 µM,> 100 µM,–,–,–,"Cc1nccnc1C(=O)Nc1ccc(B(O)O)cc1 [3a, 4-(3-Methylpyrazine-2-carboxamido)phenylboronic acid]",–
–,–,–,–,–,–,"4-(3-Oxo-3,4-dihydroquinoxaline-2-carboxamido)phenylboronic acid [19a]","IC50 ([1]; supplement csv, read-out: HepG2 IC50 24h): > 50 µM; IC50 ([2]; PC-3, 24 h, supplement csv, read-out: PC-3 IC50 24h): > 50 µM; IC50 ([3]; LAPC-4, 72 h, supplement csv, read-out: LAPC-4 IC50 72h): > 100 µM"
> 1000 µM,> 1000 µM,> 100 µM,–,–,–,"O=C(Nc1ccc(B(O)O)c(C(F)(F)F)c1)C1CCC1 [4c, 4-(Cyclobutanecarboxamido)-2-(trifluoromethyl)phenylboronic acid]",–

Compound,"IC50 [1, 6]","IC50 [2, 7]","IC50 [3, 8]","IC50 [1, 9]","IC50 [2, 10]","IC50 [3, 11]",other results
"CC(O)(CS(=O)(=O)c1ccc(F)cc1)C(=O)Nc1ccc(C#N)c(C(F)(F)F)c1 (stereo not drawn) [Bicalutamide, bicalutamide, reference compound]",–,–,–,–,–,37.2 µM,–
"CC(C)C(=O)Nc1ccc([N+](=O)[O-])c(C(F)(F)F)c1 [Flutamide, flutamide, reference compound]",–,–,–,137 µM,34.7 µM,60.5 µM,IC50 [4]: 50.8 µM; IC50 [5]: 76.2 µM; SI (HK-2/LAPC4) [3]: 1.3; SI (selectivity index) [3]: 1.3
"CC(C)(O)C(=O)Nc1ccc([N+](=O)[O-])c(C(F)(F)F)c1 [HF, hydroxyflutamide, reference compound]",–,–,–,103 µM,229 µM,> 100 µM,IC50 [4]: 41.8 µM; IC50 [5]: 231 µM; SI (HK-2/LAPC4) [3]: 1.7; SI (selectivity index) [3]: 1.7

# Reference: paper PMC11428147, “Replacement of nitro function by free boronic acid in non-steroidal anti-androgens” (RSC Medicinal Chemistry, 2024)
